Data published in the supplement of paper PMC13380429.

How the values were obtained:
Caco-2 [1] = test: drug sensitivity score (DSS) for viability; higher = more toxic; extreme values may be limits of the assay; details: 72 h
HepG2 [2] = test: as above; details: 72 h
Vero E6 [3] = test: as above; details: 72 h
Calu-3 [4] = test: as above; details: 72 h
U2OS [5] = test: as above; details: 72 h
[6] = test system: A549-ACE2 infected with SARS-CoV-2; test: cell count relative to DMSO; higher = less toxic; details: 24 h
[7] = test system: A549-ACE2 infected with SARS-CoV-2; test: morphology score (similarity to uninfected cells); higher = more like uninfected cells; details: 24 h
Caco-2 [8] = test: relative viability EC50 (midpoint between 100% and the lowest measured viability); higher = less toxic; details: 72 h
HepG2 [9] = test: as above; details: 72 h
Vero E6 [10] = test: as above; details: 72 h
Calu-3 [11] = test: as above; details: 72 h
A549-ACE2 [12] = test: drug-induced phospholipidosis relative to tamoxifen; higher = more phospholipidosis
[13] = test system: A549-ACE2 infected with SARS-CoV-2; test: SARS-CoV-2 infection rate relative to DMSO; higher = more infection; details: 24 h
Caco-2 [14] = test: cell viability relative to DMSO; higher = less toxic; details: 72 h
HepG2 [15] = test: as above; details: 72 h
Vero E6 [16] = test: as above; details: 72 h
Calu-3 [17] = test: as above; details: 72 h
U2OS [18] = test: as above; details: 72 h
A549-ACE2 [19] = test: phospholipidosis EC50; higher = less potent phospholipidosis inducer
U2OS [20] = test: relative viability EC50 (midpoint between 100% and the lowest measured viability); higher = less toxic; details: 72 h

O=S(=O)(NCC1CC1)c1ccc(Nc2nccc(N3CCCc4cc(O)ccc43)n2)cc1 [pyrintegrin]
Details	drug sensitivity score	relative viability EC50 [µM]
Caco-2 [1]	0	–
Caco-2 [8]	–	> 10
Calu-3 [4]	0.1	–
Calu-3 [11]	–	> 10
HepG2 [2]	9.2	–
HepG2 [9]	–	1.19
U2OS [5]	2.5	–
Vero E6 [3]	1.2	–
Vero E6 [10]	–	> 10

Details	SARS-CoV-2 infection rate [%]	cell count [%]	cell viability [%]	morphology score	phospholipidosis EC50 [µM]
A549-ACE2 [19], 24 h	–	–	–	–	1.91
Caco-2 [14], 1 nM	–	–	98.1	–	–
Caco-2 [14], 10 nM	–	–	102	–	–
Caco-2 [14], 100 nM	–	–	100	–	–
Caco-2 [14], 1000 nM	–	–	110	–	–
Caco-2 [14], 10000 nM	–	–	86.2	–	–
Calu-3 [17], 1 nM	–	–	95.5	–	–
Calu-3 [17], 10 nM	–	–	89.7	–	–
Calu-3 [17], 100 nM	–	–	92.8	–	–
Calu-3 [17], 1000 nM	–	–	102	–	–
Calu-3 [17], 10000 nM	–	–	85	–	–
HepG2 [15], 1 nM	–	–	102	–	–
HepG2 [15], 10 nM	–	–	103	–	–
HepG2 [15], 100 nM	–	–	107	–	–
HepG2 [15], 1000 nM	–	–	66.6	–	–
HepG2 [15], 10000 nM	–	–	15.5	–	–
U2OS [18], 1 nM	–	–	99	–	–
U2OS [18], 10 nM	–	–	97	–	–
U2OS [18], 100 nM	–	–	97.8	–	–
U2OS [18], 1000 nM	–	–	96	–	–
U2OS [18], 10000 nM	–	–	62.4	–	–
Vero E6 [16], 1 nM	–	–	90.5	–	–
Vero E6 [16], 10 nM	–	–	93.9	–	–
Vero E6 [16], 100 nM	–	–	98.9	–	–
Vero E6 [16], 1000 nM	–	–	98.3	–	–
Vero E6 [16], 10000 nM	–	–	75.3	–	–
[6], 0.1 µM	–	104	–	–	–
[6], 0.3 µM	–	106	–	–	–
[6], 1 µM	–	107	–	–	–
[6], 3 µM	–	86	–	–	–
[7], 0.1 µM	–	–	–	0.18	–
[7], 0.3 µM	–	–	–	0.28	–
[7], 1 µM	–	–	–	0.52	–
[7], 3 µM	–	–	–	0.4	–
[13], 0.1 µM	104	–	–	–	–
[13], 0.3 µM	103	–	–	–	–
[13], 1 µM	81	–	–	–	–
[13], 3 µM	60	–	–	–	–

drug-induced phospholipidosis [%], A549-ACE2 [12]
Details	0.3 µM	0.833333 µM	3.33333 µM	6.66667 µM	10 µM
24 h	5.15	22.5	132	178	150
48 h	3.16	12.3	135	–	–
72 h	2.43	7.41	–	–	–

O=c1[nH]c2ccccc2n1C1CCN(CCCC(c2ccc(F)cc2)c2ccc(F)cc2)CC1 [pimozide]
Details	drug sensitivity score	relative viability EC50 [µM]
Caco-2 [1]	0	–
Caco-2 [8]	–	> 10
Calu-3 [4]	0	–
Calu-3 [11]	–	> 10
HepG2 [2]	0	–
HepG2 [9]	–	> 10
U2OS [5]	0	–
U2OS [20]	–	> 10
Vero E6 [3]	0	–
Vero E6 [10]	–	> 10

Details	SARS-CoV-2 infection rate [%]	cell count [%]	cell viability [%]	morphology score	phospholipidosis EC50 [µM]
A549-ACE2 [19], 24 h	–	–	–	–	4.66
A549-ACE2 [19], 48 h	–	–	–	–	6.29
A549-ACE2 [19], 72 h	–	–	–	–	6.67
Caco-2 [14], 1 nM	–	–	92.2	–	–
Caco-2 [14], 10 nM	–	–	99.1	–	–
Caco-2 [14], 100 nM	–	–	98	–	–
Caco-2 [14], 1000 nM	–	–	94.6	–	–
Caco-2 [14], 10000 nM	–	–	95.7	–	–
Calu-3 [17], 1 nM	–	–	100	–	–
Calu-3 [17], 10 nM	–	–	95.5	–	–
Calu-3 [17], 100 nM	–	–	95.2	–	–
Calu-3 [17], 1000 nM	–	–	100	–	–
Calu-3 [17], 10000 nM	–	–	93.9	–	–
HepG2 [15], 1 nM	–	–	119	–	–
HepG2 [15], 10 nM	–	–	114	–	–
HepG2 [15], 100 nM	–	–	108	–	–
HepG2 [15], 1000 nM	–	–	85.2	–	–
HepG2 [15], 10000 nM	–	–	104	–	–
U2OS [18], 1 nM	–	–	99.4	–	–
U2OS [18], 10 nM	–	–	102	–	–
U2OS [18], 100 nM	–	–	99.5	–	–
U2OS [18], 1000 nM	–	–	104	–	–
U2OS [18], 10000 nM	–	–	94.6	–	–
Vero E6 [16], 1 nM	–	–	106	–	–
Vero E6 [16], 10 nM	–	–	88.7	–	–
Vero E6 [16], 100 nM	–	–	104	–	–
Vero E6 [16], 1000 nM	–	–	94.2	–	–
Vero E6 [16], 10000 nM	–	–	104	–	–
[6], 0.3 µM	–	92	–	–	–
[6], 3 µM	–	108	–	–	–
[6], 10 µM	–	113	–	–	–
[6], 30 µM	–	86	–	–	–
[7], 0.3 µM	–	–	–	-0.1	–
[7], 3 µM	–	–	–	0.46	–
[7], 10 µM	–	–	–	0.79	–
[7], 30 µM	–	–	–	0.31	–
[13], 0.3 µM	99	–	–	–	–
[13], 3 µM	83	–	–	–	–
[13], 10 µM	20	–	–	–	–
[13], 30 µM	33	–	–	–	–

drug-induced phospholipidosis [%], A549-ACE2 [12]
Details	0.3 µM	0.833333 µM	3.33333 µM	6.66667 µM	10 µM	30 µM
24 h	4.09	5.84	24.5	59.8	64.4	78
48 h	4.99	5.4	17.8	56.9	81	99.5
72 h	6.59	6.94	22.7	60.3	85.3	111

Cc1[nH]c(/C=C2\C(=O)Nc3ccc(S(=O)(=O)N(C)c4cccc(Cl)c4)cc32)c(C)c1C(=O)N1CCN(C)CC1
Details	drug sensitivity score	relative viability EC50 [µM]
Caco-2 [1]	0.5	–
Caco-2 [8]	–	> 10
Calu-3 [4]	0.3	–
Calu-3 [11]	–	> 10
HepG2 [2]	1.3	–
U2OS [5]	0	–
U2OS [20]	–	> 10
Vero E6 [3]	0	–
Vero E6 [10]	–	> 10

Details	SARS-CoV-2 infection rate [%]	cell count [%]	cell viability [%]	morphology score	phospholipidosis EC50 [µM]
A549-ACE2 [19], 24 h	–	–	–	–	4.77
A549-ACE2 [19], 48 h	–	–	–	–	3.94
Caco-2 [14], 1 nM	–	–	96	–	–
Caco-2 [14], 10 nM	–	–	98.5	–	–
Caco-2 [14], 100 nM	–	–	99.9	–	–
Caco-2 [14], 1000 nM	–	–	97.5	–	–
Caco-2 [14], 10000 nM	–	–	85.2	–	–
Calu-3 [17], 1 nM	–	–	106	–	–
Calu-3 [17], 10 nM	–	–	93.5	–	–
Calu-3 [17], 100 nM	–	–	112	–	–
Calu-3 [17], 1000 nM	–	–	101	–	–
Calu-3 [17], 10000 nM	–	–	83.8	–	–
HepG2 [15], 1 nM	–	–	106	–	–
HepG2 [15], 10 nM	–	–	105	–	–
HepG2 [15], 100 nM	–	–	93.5	–	–
HepG2 [15], 1000 nM	–	–	103	–	–
HepG2 [15], 10000 nM	–	–	66.5	–	–
U2OS [18], 1 nM	–	–	104	–	–
U2OS [18], 10 nM	–	–	98.2	–	–
U2OS [18], 100 nM	–	–	106	–	–
U2OS [18], 1000 nM	–	–	101	–	–
U2OS [18], 10000 nM	–	–	91	–	–
Vero E6 [16], 1 nM	–	–	101	–	–
Vero E6 [16], 10 nM	–	–	102	–	–
Vero E6 [16], 100 nM	–	–	94.3	–	–
Vero E6 [16], 1000 nM	–	–	107	–	–
Vero E6 [16], 10000 nM	–	–	88.1	–	–
[6], 0.3 µM	–	94	–	–	–
[6], 3 µM	–	105	–	–	–
[6], 10 µM	–	70	–	–	–
[6], 30 µM	–	85	–	–	–
[7], 0.3 µM	–	–	–	0.29	–
[7], 3 µM	–	–	–	0.61	–
[7], 10 µM	–	–	–	0.45	–
[7], 30 µM	–	–	–	0.53	–
[13], 0.3 µM	89	–	–	–	–
[13], 3 µM	46	–	–	–	–
[13], 10 µM	20	–	–	–	–
[13], 30 µM	34	–	–	–	–

drug-induced phospholipidosis [%], A549-ACE2 [12]
Details	0.3 µM	0.833333 µM	3.33333 µM	6.66667 µM	10 µM	30 µM
24 h	22.5	42.3	133	230	269	324
48 h	12.7	30.6	129	–	333	340
72 h	9.3	20.7	128	–	–	–
